Assay results as given in publication PMC6274483, “Novel Selective and Potent EGFR Inhibitor that Overcomes T790M-Mediated Resistance in Non-Small Cell Lung Cancer” (Molecules, 2016).
“Also recorded” adds a separate entry of the source. Where two headings read alike, the source gives them in different places.

Key:
[1] = test system: A431 cells; test: AO/EB and DAPI staining, A431; format: cell-based, human; conditions: A431, AO/EB or DAPI staining, 48 h
Protocol: (§1) Approximately 2 × 10^5 cells/well of A431 and H1975 cells in 6-well plates were incubated in an incubator for 48 h, then treated with different concentrations of inhibitors for 48 h. After incubation, the cells were washed with PBS twice. Then, total of 20 μL of the solution containing the AO/EB dye mix (1.0 μg/mL of AO and 1.0 μg/mL of EB in PBS) was added to the cells. The apoptotic, necrotic, and live cells were observed and counted under the fluorescent microscope (OLYMPUS, Tokyo, Japan). DAPI staining was performed after being treated as mentioned above. The cells plated in 6-well plates were washed twice with PBS and fixed with 10% formaldehyde for 10 min, then washed with PBS three times. Cells were subsequently incubated in DAPI (1.0 μg/mL) solution at room temperature for 10 min, washed with PBS and examined under a fluorescence microscope (OLYMPUS).

[2] = test system: HCC827 cells; test: CCK-8 cell viability, HCC827; format: cell-based; conditions: Homo sapiens
Protocol: (§2) All the cell viability assays were performed according to the CCK-8 method. The cells were seeded at a density of 5 to 8 × 10^4 cells/mL in 96-well plates in growth medium supplemented with 10% serum at 37 °C with 5% CO2 for one day. After 12 h of incubation, 100 μL of medium was removed, and 100 μL of sample solution with different concentrations of inhibitor was added and then the cells were incubated for 48 or 72 h. Subsequently, 10 μL of CCK-8 reagent (Biotool Company, Kirchberg, Switzerland, 5.0 mg/mL) dissolved in phosphate-buffered saline (PBS) was added and the cells were incubated for another 4 h. The absorbance was read at 450 nm with a microplate reader (Thermo Fisher Scientific, Waltham, MA, USA). The data were calculated using GraphPad Prim version 5.0.

[3] = test system: H1299 cells; test: CCK-8 cell viability, H1299; format: cell-based; conditions: Homo sapiens, NCI-H1299, H1299 (wild-type), read-out: Cellular Antiproliferative Activity (IC50, μM) H1299
Protocol: as §2

[4] = test system: H1975 cells; test: Cell apoptosis, Annexin V-FITC/PI flow cytometry, H1975; format: cell-based, human; conditions: 48 h
Protocol: The H1975 and A431 cells (1 to 5 × 10^5 cells/well) incubated in 6-well plates were treated by different concentrations of inhibitors for 48 h. Then, they were collected and fixed with 70% ethanol at 4 °C overnight. After beening fixed with […], the cells were stained with Annexin V-FITC (5 μL)/propidium iodide (5 μL) and analyzed by flow cytometry assay (Becton-Dickinson, Franklin Lakes, NJ, USA).

[5] = molecular target: T1, EGFR L858R/T790M (Homo sapiens, UniProt P00533, L858R/T790M); test: EGFR kinase enzymatic assay (ADP-Glo), L858R/T790M mutant; format: biochemical
T1 construct: purchased Promega Corporation V5324
Protocol: (§3) Concentrations consisting of suitable levels from 0.1 to 100 nM were used for all of the tested compunds. The experiments were performed according to the instructions of the manufacturer. […] The test was performed in a 384-well plate, and includes the major steps below: (1) perform a 5 μL kinase reaction using 1× kinase buffer (e.g., 1× reaction buffer A); (2) incubate at room temperature for 60 min; (3) add 5 μL of ADP-Glo™ Reagent to stop the kinase reaction and deplete the unconsumed ATP, leaving only ADP and a very low background of ATP; (4) incubate at room temperature for 40 min; (5) add 10 μL of Kinase Detection; (6) reagent to convert ADP to ATP and introduce luciferase and luciferin to detect ATP; (7) incubate at room temperature for 30 min; (8) plate was measured on TriStar® LB942 Multimode Microplate Reader (BERTHOLD TECHNOLOGIES GmbH & Co. KG., Bad Wildbad, Germany) to detect the luminescence (Integration time 0.5–1 s). Curve fitting and data presentations were performed using GraphPad Prism version 5.0 (GraphPad Software, Inc.).

[6] = test system: H1975 cells; test: CCK-8 cell viability, H1975; format: cell-based; conditions: Homo sapiens, NCI-H1975, H1975 (EGFR T790M), read-out: Cellular Antiproliferative Activity (IC50, μM) H1975
Protocol: as §2

[7] = test system: A549 cells; test: CCK-8 cell viability, A549; format: cell-based; conditions: Homo sapiens
Protocol: as §2

[8] = test system: H1975 cells; test: Intracellular ROS generation (DCFH-DA), H1975; format: cell-based, human; conditions: H1975, 24 h
Protocol: (§4) The human H1975 and A431 cells at a density of approximately 2 × 10^5 cells/well were plated in a 6-well plate and then treated with different concentrations of inhibitors for 24 h. Then the cells were harvested, resuspended in 1 mL of DCFH-DA ([…]), and the levels of ROS were determined by flow cytometry (Becton-Dickinson, Franklin Lakes, NJ, USA).

[9] = test system: LO-2 cells; test: CCK-8 cell viability, LO-2 normal liver cells; format: cell-based; conditions: Homo sapiens, L02, LO-2 normal liver cell line, read-out: Cellular Antiproliferative Activity (IC50, μM) LO-2
Protocol: as §2

[10] = test system: A431 cells; test: CCK-8 cell viability, A431; format: cell-based; conditions: Homo sapiens
Protocol: as §2

[11] = test system: H1975 cells; test: Cell cycle analysis, PI flow cytometry, H1975; format: cell-based, human; conditions: H1975, 200 nM, 48 h, cell cycle phase
Protocol: (§5) The H1975 and A431 cells at a density of approximately 2 × 10^5 cells/well were incubated in 6-well plates, treated with different concentrations of inhibitors for 48 h, collected and fixed with 70% ethanol at 4 °C overnight. After fixation, the cells were washed with PBS and stained with propidium iodide (PI) for 10 min under subdued light. Stained cells were analyzed by flow cytometry assay (Becton-Dickinson, Franklin Lakes, NJ, USA).

[12] = test system: LoVo cells; test: CCK-8 cell viability, LoVo; format: cell-based; conditions: Homo sapiens
Protocol: as §2

[13] = test system: H1975 cells; test: Wound healing and transwell assays, H1975; format: cell-based, human
Protocol: (§6) The cancer cells were cultured in 6-well plates for 48 h at 37 °C. Wounds were created in the cell monolayer and washed with PBS to remove cell debris, then the cells were treated with different concentrations of inhibitor for 48 h. After that, the dead cells were washed away with PBS, and the images were taken by the fluorescence microscope (OLYMPUS).
(§7) Cell migration assay was evaluated by using Boyden chambers containing a transwell membrane filter with an 8 μm size pore (Corning Costa Corp, Cambridge, MA, USA). Prior to the invasion assay, the filter membrane was coated with 60 μL of Matrigel (BD Biosciences, Billerica, MA, USA) at a 1:8 dilution and rehydrated by adding […] serum-free medium to the apical side of the chamber at 37 °C for 0.5 h. The cells (2 × 10^5 cells/well for invasion assay) were seeded to the apical side of the chamber with 200 μL medium with different concentrations of inhibitors, and the basolateral side of the chamber was filled with 600 μL medium containing 10% FBS. After 24 h at 37 °C, the cells adherent to the upper surface of the filter were swept by cotton swabs, then fixed with methanol, stained with crystal violet, and the cells were counted under a microscope in five random fields, irrespective of staining intensity. The images were taken by the fluorescence microscope (OLYMPUS).

[14] = test system: A431 cells; test: Cell cycle analysis, PI flow cytometry, A431; format: cell-based, human; conditions: 48 h
Protocol: as §5

[15] = test system: A431 cells; test: Wound healing and transwell assays, A431; format: cell-based, human
Protocol: as §6, §7

[16] = test system: H1975 cells; test: AO/EB and DAPI staining, H1975; format: cell-based, human; conditions: H1975, AO/EB or DAPI staining, 48 h
Protocol: as §1

[17] = test system: HBE cells; test: CCK-8 cell viability, HBE normal bronchial cells; format: cell-based; conditions: HBE normal human bronchial cell line, read-out: Cellular Antiproliferative Activity (IC50, μM) HBE
Protocol: as §2

[18] = In vivo blood sugar test (rat oral glucose tolerance); conditions: healthy male SD rats, 50 mg/kg (HBr form), up to 12 h
Protocol: The Roche Accu-chek® Go blood meter was used for the determination of glucose concentration. Before testing, standard set-up of blood meter was performed according to the instrument’s specifications. […] Water was allowed ad libitum throughout the study. Rats were orally given compound DY3002 (50 mg/kg) and a vehicle. For the oral study, the compounds were formulated as a solution (Solutol HS15: NS = 30:70, v:v). Sampling occurred prior to dosing and at 7–9 different time points up to 12 h. Concentration of glucose in the blood was determined by blood meter.

[19] = test system: A431 cells; test: Cell apoptosis, Annexin V-FITC/PI flow cytometry, A431; format: cell-based, human; conditions: 48 h
[20] = molecular target: T2, wild-type EGFR (Homo sapiens, UniProt P00533); test: EGFR kinase enzymatic assay (ADP-Glo), wild-type; format: biochemical; conditions: read-out: EGFR (IC50, nM) WT
T2 construct: purchased Promega Corporation V3831
Protocol: as §3, with “The” for “Concentrations consisting of suitable levels from 0.1 to 100 nM were used for all of the tested compunds. The”

[21] = test system: A431 cells; test: Intracellular ROS generation (DCFH-DA), A431; format: cell-based, human; conditions: A431, 24 h
Protocol: as §4

[22] = high dose, patients in clinical trials; cited from earlier work
[23] = HCC827 (EGFR del E746_A750), CCK-8, read-out: Cellular Antiproliferative Activity (IC50, μM) HCC827
[24] = A549 (wild-type and k-ras), CCK-8, read-out: Cellular Antiproliferative Activity (IC50, μM) A549
[25] = A-431, A431 (wild-type), CCK-8, read-out: Cellular Antiproliferative Activity (IC50, μM) A431
[26] = CCK-8, read-out: Cellular Antiproliferative Activity (IC50, μM) LoVo

Compound	IC50 [2, 23] [µM]	IC50 [3] [µM]	Apoptosis rate (%) ([4]; H1975, 200 nM)	IC50 [6] [µM]	IC50 [7, 24] [µM]	effect on ROS generation [8]	IC50 [9] [µM]	IC50 [10, 25] [µM]	IC50 [12, 26] [µM]	IC50 [17] [µM]	Apoptosis rate (%) ([19]; A431, 1 μM)	effect on ROS generation [21]	other results
C=CC(=O)Nc1cccc(Nc2nc(Nc3ccc(CN4CCOCC4)cc3)ncc2Cl)c1 [DY3002, N-(3-((5-chloro-2-(4-((1-morpholino)methyl)phenylamino)-4-pyrimidinyl)amino)phenyl)acrylamide]	0.0104	4.12	72.0	0.037	4.45	effectively inhibited ROS generation	4.24	0.382	2.46	> 40	50.8	effectively inhibited ROS generation	apoptotic morphology [1]: striking nuclear condensation, membrane blebbing, nuclear fragmentation, and apoptotic bodies; Apoptosis rate (%) ([4]; H1975, 100 nM): 25.7%; Apoptosis rate (%) ([4]; H1975, 400 nM): 90.1%; IC50 ([5]; EGFR L858R/T790M, ADP-Glo kinase assay): 0.71 nM; SI(WT:L858R/T790M) ([5]; selectivity index, IC50 WT / IC50 L858R/T790M): 632.0; G0/G1 [11]: 91.33%; S [11]: 5.67%; inhibition of cell migration [13]: strongly inhibit migration; G0/G1 ([14]; A431, 2 μM, cell cycle phase): 75.87%; cell-cycle arrest ([14]; A431, 0.5, 1 and 2 μM): G0/G1 arrest; inhibition of cell migration [15]: only moderately interfered; apoptotic morphology [16]: striking nuclear condensation, membrane blebbing, nuclear fragmentation, and apoptotic bodies; hyperglycemia (blood glucose concentration versus control group) [18]: did not result in hyperglycemia; also recorded: did not yield hyperglycemia; also recorded: no hyperglycemia side effects; Apoptosis rate (%) ([19]; A431, 0.5 μM): 46.1%; Apoptosis rate (%) ([19]; A431, 2 μM): 61.6%; IC50 [20]: 449 nM
COc1cc2ncnc(Nc3ccc(F)c(Cl)c3)c2cc1OCCCN1CCOCC1 [Gefitinib, gefitinib, reference compound]			4.6										
C=CC(=O)Nc1cc(Nc2nccc(-c3cn(C)c4ccccc34)n2)c(OC)cc1N(C)CCN(C)C [Osimertinib, osimertinib]		7.49		0.087		[…]	4.56			8.39		[…]	IC50 ([2]; HCC827, read-out: Cellular Antiproliferative Activity (IC50, μM) HCC827): 0.0102 µM; IC50 ([7]; A549, read-out: Cellular Antiproliferative Activity (IC50, μM) A549): 7.28 µM; IC50 ([10]; A-431, read-out: Cellular Antiproliferative Activity (IC50, μM) A431): […]; IC50 ([12]; read-out: Cellular Antiproliferative Activity (IC50, μM) LoVo): 4.85 µM
C=CC(=O)Nc1cccc(Nc2nc(Nc3ccc(N4CCN(C(C)=O)CC4)cc3OC)ncc2C(F)(F)F)c1 [Rociletinib, rociletinib]	0.0181	20.1	65.2	0.137	6.5	effectively inhibited ROS generation	8.57	1.29	20.1	> 40	54.5	effectively inhibited ROS generation	side effect in patients [22]: hyperglycemia
